Assay results published in patent US20100293626A1, “METHODS FOR IMPROVEMENT OF BIRTH RATES IN CANIDAE ON SOMATIC CELL NUCLEAR TRANSFER” (SEOUL NATIONAL UNIVERSITY INDUSTRY FOUNDATION, priority 2007, published 2010).

How the values were obtained:
[1] = system: reconstructed oocytes (canine cloned embryos); assay: Nuclear remodeling of reconstructed oocytes after somatic cell nuclear transfer with roscovitine-treated donor cells; type: cell-based, dog
Experimental: Before performing somatic cell nuclear transfer, the cells were thawed and cultured for 24 hours in a medium supplemented with 15 μM roscovitine (i.e., DMEM+10% FBS+15 μM roscovitine). Then, the cells were treated with trypsin for about 2 minutes during somatic cell nuclear transfer and collected from the monolayer.
The nuclear donor cells prepared in Example 3 were microinjected into the enucleated oocytes prepared in Example 2. The nuclear donor cells were microinjected into a perivitelline space of the enucleated oocytes in the following manner. The enucleated oocytes were treated with […] phytohemagglutinin in the medium of Table 1, and the slit of the enucleated oocytes was held with a holding pipette. Then, a transfer pipette was inserted into the slit, and the single cells isolated from fibroblasts in Example 3 were injected between the cytoplasm and zona pellucida of the enucleated oocytes by the transfer pipette.
Then, the nuclear donor cell-oocyte couplets were placed in a fusion medium (containing 0.26 M mannitol, 0.1 mM MgSO4, 0.5 mM HEPES and 0.05% BSA) and interposed between two parallel electrodes attached to a micromanipulator (Nikon-Narishige, Japan). Then, the fusion of the couplets was induced by electrical stimulation applied twice at a voltage of 4 kV/cm for 15 μs using an electro-cell fusion apparatus (NEPA GENE Co., Chiba, Japan).
After 1 hour of electrical stimulation, the fusion of the nuclear donor cells with the oocyte cytoplasm was observed under a stereomicroscope. The fused embryos were selected and cultured for 1.5-4 hours in TCM-199 (Table 2) supplemented with 10% (v/v) FBS.
The nuclear transfer embryos obtained in Example 4 were cultured in mSOF containing 10 μM ionophore (Sigma) at 39° C. for 4 minutes, thus inducing the activation of the nuclear transfer embryos. Then, the nuclear transfer embryos were washed and further cultured in mSOF (Table 3) supplemented with 1.9 mM 6-dimethylaminopurin for 4 hours.
After performing canine somatic cell nuclear transfer into the enucleated oocytes using the microinjection method, the difference in the formation and change of nuclei between a control group not treated with roscovitine and a group treated with roscovitine for 24 hours, was examined.

surrogate mothers = assay: Pregnancy rate after transfer of nuclear transfer embryos into surrogate mothers; type: in vivo, dog
Experimental: The nuclear transfer embryos from Example 5 were surgically transferred into the oviduct of estrus synchronized surrogate mothers. The transfer was carried out within 4 hours after the activation of the nuclear transfer embryos. […] For the transfer, the surrogate mothers were anesthetized by vascular injection with 0.1 mg/kg acepromazine and 6 mg/kg propofol, and maintained at the anesthetized state using 2% isoflurane. Operation area of the anesthetized female dogs was aseptically operated and incised on the center of the abdomen according to general laparotomy so as to expose the oviduct. The abdominal cavity was stimulated by hand to draw the ovary, the oviduct and the uterus to the incision. The mesovarium of the drawn ovary was carefully handled to recognize the opening of the oviduct, and a 3.5 F Tom cat catheter (Sherwood, St. Louis, Mo.) equipped with a 1.0 ml tuberculin syringe (Latex free, Becton Dickinson & CO. Franklin lakes, N.J. 07417) was inserted into the oviduct to secure a sufficient space in the front of the catheter. Then, the nuclear transfer embryos were injected into the oviduct through the catheter. Whether the nuclear transfer embryos were successfully injected was observed under a microscope. The abdominal suture was performed with an absorbable suture material, and then, skin suture was performed. To prevent post-surgery infection, a broad range of antibiotic was injected for 3 days.
At 23 days after transferring the nuclear transfer embryos into the surrogate mothers, pregnancies were detected using a SONOACE 9900 (Medison Co. LTD, Seoul, Korea) ultrasound scanner with an attached 7.0 MHZ linear probe. Pregnancy was monitored by ultrasound every 2 weeks after initial confirmation. As a result, it was confirmed that the dogs had become pregnant, and the cloned dogs were produced by inducing natural delivery or performing Cesarean section. […]

[2] = 1 hpf, donor cells treated with roscovitine for 24 hours
[3] = 4 hpa, donor cells treated with roscovitine for 24 hours

SMILES: CC[C@@H](CO)Nc1nc(NCc2ccccc2)c2ncn(C(C)C)c2n1 [roscovitine]
- No. of reconstructed oocytes with IN (intact nucleus) ([1]; 1 hpf (hour post fusion), donor cells treated with roscovitine for 24 hours): 11
- IN (%) for reconstructed oocytes [1, 2]: (32.3 ± 7.0) %
- No. of reconstructed oocytes with NE (nuclear enlargement) [1, 2]: 0
- No. of reconstructed oocytes with NS (nuclear swelling) [1, 2]: 0
- No. of reconstructed oocytes with PCC (premature chromosome condensation) [1, 2]: 23
- PCC (%) for reconstructed oocytes [1, 2]: (67.6 ± 7.0) %
- No. of reconstructed oocytes with IN (intact nucleus) ([1]; 4 hpa (hour post activation), donor cells treated with roscovitine for 24 hours): 0
- NE (%) for reconstructed oocytes [1, 3]: (23.6 ± 7.5) %
- NS (%) for reconstructed oocytes [1, 3]: (73.6 ± 7.5) %
- No. of reconstructed oocytes with NE (nuclear enlargement) [1, 3]: 9
- No. of reconstructed oocytes with NS (nuclear swelling) [1, 3]: 28
- No. of reconstructed oocytes with PCC (premature chromosome condensation) [1, 3]: 1
- PCC (%) for reconstructed oocytes [1, 3]: (2.6 ± 3.3) %
- Nuclear swelling (NS) compared with control group, in words ([1]; 4 hours after activation of the fused embryos): occurred more in the treated group than in the control group
- Rate of premature chromosome condensation (PCC) compared with control group, in words ([1]; after electrical fusion (1 hour elsewhere in the source)): at a rate significantly higher than that in the control group
- No. of pregnant mothers (surrogate mothers; 556 embryos transferred into 29 surrogate mothers, donor cells treated with roscovitine): 11
- Pregnancy rate (based on transfer embryos) (surrogate mothers; 556 transfer embryos): 3.95%
- Pregnancy rate compared with control, in words (surrogate mothers; somatic cell nuclear transfer after treatment with roscovitine): very significantly increased
